Data published in patent US9358297B2, “Posaconazole intravenous solution formulations stabilized by substituted β-cyclodextrin” (Merck Sharp & Dohme Corp., priority 2010, dated 2016).
Values after ≈ are worked out from the molar mass of the structure shown. Like-named read-outs stand apart in the source and are kept apart here. Each block holds one compound with its values, some of them ahead of it.

Columns and labels:
[1] = Posaconazole solubility in acidified Captisol solutions; format: physicochemical; details: for solubility: acidified Captisol solution
Experimental: In an effort to evaluate the range of posaconazole solubilities that could be achieved at feasible pH's, a series of solutions was prepared with a fixed Captisol® concentration. Utilizing an acidic solution of 20% Captisol® (w/v), the solubility of posaconazole was increased more than 1000 times and it was determined that a target concentration of 5 mg/mL could be achieved.
Posaconazole solubility was also evaluated in acidified solutions with different Captisol® concentrations. […] Therefore, at some pH values, as the Captisol® concentration increases, the ratio of Captisol® to solubilized posaconazole will decrease. Based on this solubility effect, a formulation could be developed whereby for the same posaconazole daily dosage, the daily dose of Captisol® could be decreased.
Hydrochloric acid was used as an acidifier in the posaconazole formulation. However, several additional acidifiers (i.e., citric, sulfuric, maleic, phosphoric, acetic, L-tartaric, D-tartaric, DL-tartaric, methanesulfonic, naphthalenesulfonic, p-toluenesulfonic, lactic, L-lactic, L-ascorbic and malic acid, as well as, glycine hydrochloride) were also evaluated in regard to posaconazole solubilization.

[2] = Effect of co-solvents and non-ionic surfactants on posaconazole solubility in 100 mM Captisol; format: physicochemical; details: pH 4.5, aqueous with cosolvent or surfactant or cyclodextrin, thermodynamic from solid
Experimental: In an effort to explore further improvements to the formulation, the effects of various co-solvents and non-ionic surfactants, on the solubility of posaconazole in a 100 mM Captisol® solution, were examined. The Captisol® solutions were adjusted with HCl to pH 4.5 and an appropriate amount of co-solvent was added. An excess amount of posaconazole was added to the pH-adjusted cyclodextrin/co-solvent solution and the solutions were allowed to equilibrate for a period of three days. The contents of the vials were then centrifuged and the supernatant was assayed for posaconazole.

[3] = Posaconazole solubility in modified β and γ-cyclodextrins; format: physicochemical; details: for solubility: pH 4.5, aqueous with cosolvent or surfactant or cyclodextrin; for fold more posaconazole solubilized than Captisol: 100 mM cyclodextrin solutions
Experimental: The solubilities of posaconazole in each of several modified β and γ-cyclodextrins were evaluated. Solubilization of posaconazole was tested with three gamma cyclodextrins; SBE (5.2)-gamma, SBE (5.2) Et (3.9)-gamma and SBE (5.2) Et (4.9)-gamma cyclodextrin, (CyDex, Inc.).
On the other hand, some changes in β-cyclodextrin substitutions did lead to greater solubilization. Utilizing 100 mM cylodextrin solutions at pH 4.5, solubilization of posaconazole with SBE (4.6)-β, SBE (4.6)-Et (3.5)-β and SBE (4.6)-Et (8.5)-β cyclodextrins, versus Captisol®, was evaluated. The SBE (4.6)-Et (3.5)-β and SBE (4.6)-Et (8.5)-β cyclodextrins solubilized 2.6 and 6.6 fold more posaconazole (respectively) than did Captisol® (See FIG. 2). However, the extensive Captisol® safety information outweighed the potential benefits of greater solubilization and, for this reason, formulations with other sulfobutyl ether cyclodextrins were not further developed.

[4] = neutral and basic aqueous solutions; cited from earlier work
[5] = in water; cited from earlier work

solubility ([1]; pH 3, aqueous with cosolvent or surfactant or cyclodextrin, 20% Captisol, pH 3.0): 8700 µg/mL (≈ 12.4 mM)
solubility ([1]; pH 3.1, aqueous with cosolvent or surfactant or cyclodextrin, 20% Captisol, pH 3.1, calculated average of measured solubility at pH 3.0 and pH 3.2): 7800 µg/mL (≈ 11.1 mM)
solubility ([1]; pH 3.1, aqueous with cosolvent or surfactant or cyclodextrin, 40% Captisol, pH 3.1): 22500 µg/mL (≈ 32.1 mM)
solubility ([1]; pH 3.2, aqueous with cosolvent or surfactant or cyclodextrin, 20% Captisol, pH 3.2): 6900 µg/mL (≈ 9.85 mM)
solubility ([1]; pH 3.4, aqueous with cosolvent or surfactant or cyclodextrin, 20% Captisol, pH 3.4): 5200 µg/mL (≈ 7.42 mM)
solubility ([1]; pH 3.6, aqueous with cosolvent or surfactant or cyclodextrin, 20% Captisol, pH 3.6): 4000 µg/mL (≈ 5.71 mM)
solubility ([1]; pH 3.8, aqueous with cosolvent or surfactant or cyclodextrin, 20% Captisol, pH 3.8): 3100 µg/mL (≈ 4.42 mM)
posaconazole solubilization with additional acidifiers versus hydrochloric acid ([1]; citric, sulfuric, maleic, phosphoric, acetic, tartaric, sulfonic, lactic, ascorbic, malic acids, glycine hydrochloride, same pH): no improvement in solubility
solubility at 3 days ([2]; Captisol solution with co-solvent, 100 mM Captisol pH 4.5 + 10% PEG 400): 1280 µg/mL
solubility at 3 days ([2]; Captisol solution with co-solvent, 100 mM Captisol pH 4.5 + 10% PVP): 640 µg/mL
solubility at 3 days ([2]; Captisol solution with co-solvent, 100 mM Captisol pH 4.5 + 10% Propylene Glycol): 410 µg/mL
solubility at 3 days ([2]; Captisol solution with surfactant, 100 mM Captisol pH 4.5 + 0.1% Poloxamer F-68): 1630 µg/mL
solubility at 3 days ([2]; Captisol solution with surfactant, 100 mM Captisol pH 4.5 + 0.1% Tween 20): 1710 µg/mL
solubility at 3 days ([2]; Captisol solution with surfactant, 100 mM Captisol pH 4.5 + 0.1% Tween 80): 1740 µg/mL
solubility at 3 days ([2]; Captisol solution, Control (100 mM Captisol), pH 4.5, three days equilibration): 1770 µg/mL (≈ 2.53 mM)
fold less solubility with gamma cyclodextrins than with Captisol ([3]; pH 4.5): approximately 8 fold
solubility ([3]; highest posaconazole solubility achieved): 189 µg/mL (≈ 0.27 mM)
solubility ([3]; posaconazole solubility): 1510 µg/mL (≈ 2.15 mM)
Compound: CC[C@@H]([C@H](C)O)n1ncn(-c2ccc(N3CCN(c4ccc(OC[C@@H]5CO[C@@](Cn6cncn6)(c6ccc(F)cc6F)C5)cc4)CC3)cc2)c1=O [Posaconazole, posaconazole]
solubility [4]: less than 1 μg/mL

fold more posaconazole solubilized than Captisol ([3]; pH 4.5): 2.6 fold
Compound: SBE (4.6)-Et (3.5)-β cyclodextrin

fold more posaconazole solubilized than Captisol ([3]; pH 4.5): 6.6 fold
Compound: SBE (4.6)-Et (8.5)-β cyclodextrin

Compound: Sulfobutyl ether-β-cyclodextrins, (SBE-β-CD) sodium salt [Captisol®]
solubility [5]: >800 mg/mL in water
